According to patent US20090175914A1, “Salts or Complexes of Methyl Donors With Phytic Acid or Its Derivatives and Method for the Synthesis Thereof” (priority 2005, published 2009):

Tests used:
[1] = Stability trial, 5 days at 53° C., degradation evaluated by HPCEC-UV; type: physicochemical
Experimental: The evaluation of the degradation was carried out by HPCEC-UV analysis using 0.5M (pH 4) ammonium formiate as an eluent, a flow of 1.2 ml/min, and a Supelcosil LC-SCX column (25 cm, 4.6 mm, 5 micron). The product thus obtained was subjected to stability trials according to a procedure similar to the one adopted for the Comparative Example above. […] Also in this case, the evaluation of the degradation was carried out by HPCEC-UV analysis using 0.5M ammonium formiate (pH 4) as an eluent, a flow of 1.2 ml/min, and a Supelcosil LC-SCX column (25 cm, 4.6 mm, 5 μm).

[2] = tested on: peripheral neuropathies caused by diabetes; details: 500 mg twice a day for two weeks; cited from earlier work

With SAMe Phytate Salt [Example 1] the stability ([1]; 5 days at 53° C.) was “very stable”.
For “SAMe salt with phytic acid [SAMe phytate complex]”, the SAMe ion ([1]; Lot 1, after 5 days at 53° C.) was 23.2 % p/p, the “% Variation of SAMe ion” value ([1]; Lot 1, after 5 days at 53° C. vs initial) was −7.9% and the SAMe ion ([1]; Lot 1, immediately after preparation) was 25.2 % p/p. For the same molecule, the SAMe ion ([1]; Lot 2, after 5 days at 53° C.) was 23.3 % p/p, the “% Variation of SAMe ion” value ([1]; Lot 2, after 5 days at 53° C. vs initial) was −7.2% and the SAMe ion ([1]; Lot 2, immediately after preparation) was 25.1 % p/p. The SAMe ion ([1]; Lot 3, after 5 days at 53° C.) was 23.2 % p/p, the “% Variation of SAMe ion” value ([1]; Lot 3, after 5 days at 53° C. vs initial) was −8.3% and the SAMe ion ([1]; Lot 3, immediately after preparation) was 25.3 % p/p. For the same molecule, the SAMe ion ([1]; Mean of 3 lots, after 5 days at 53° C.) was 23.2 % p/p, the “% Variation of SAMe ion” value ([1]; Mean of 3 lots, after 5 days at 53° C. vs initial) was −7.8% and the SAMe ion ([1]; Mean of 3 lots, immediately after preparation) was 25.2 % p/p.
In the case of `O[C@H]1[C@H](O)[C@@H](O)[C@H](O)[C@@H](O)[C@H]1O` [inositol], the therapeutic result [2] is listed as “considerable results”.
